The test system of the assay is Botrytis cinerea (B05.10). Nature of the assay: Resazurin antifungal assay of 180 alpha-factor peptide variants towards Botrytis (Example 2). The format is cell-based. The settings on record: % inhibition of fungal growth, Botrytis conidia, resazurin; for Inhibition at 50 μM: peptide 50 μM; for Inhibition at 100 μM: peptide 100 μM. The method in brief: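 B. cinerea B05.10 conidia (5000/well) were exposed to peptides at 100, 50, 20, 15 and 10 μM final for 24 h at 20° C. Resazurin was then added and fluorescence read at 570/620 nm. Percent growth inhibition was calculated against conidia-only wells, with four technical replicates.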

Peptide text beside a SMILES is read from it.

With `CSCC[C@H](NC(=O)[C@@H]1CCCN1C(=O)[C@H](CCC(N)=O)NC(=O)CNC(=O)[C@@H]1CCCN1C(=O)[C@H](CCCCN)NC(=O)[C@H](Cc1ccccc1)NC(=O)[C@H](CCCNC(=N)N)NC(=O)[C@H](CC(C)C)NC(=O)[C@H](CC(=O)O)NC(=O)[C@H](Cc1c[nH]cn1)NC(=O)[C@@H](N)CCCCN)C(=O)N[C@@H](Cc1ccc(O)cc1)C(=O)O` [compound 29] (H-KHDLRFKPGQPMY-OH; N-terminus and C-terminus assumed), the “Inhibition at 50 μM” value is reported as <90% and the “Inhibition at 100 μM” value stood at 97.77%.
The matching figures for `CC[C@H](C)[C@H](NC(=O)[C@@H](NC(=O)[C@H](CC(C)C)NC(=O)[C@H](Cc1c[nH]c2ccccc12)NC(=O)[C@H](Cc1c[nH]cn1)NC(=O)[C@@H]1CCCN1)[C@@H](C)O)C(=O)N[C@@H](CCCCN)C(=O)N1CCC[C@H]1C(=O)NCC(=O)N[C@@H](CCC(N)=O)C(=O)N1CCC[C@H]1C(=O)N[C@@H](CCSC)C(=O)N[C@@H](Cc1ccc(O)cc1)C(=O)O` [compound 30] (H-PHWLTIKPGQPMY-OH; N-terminus and C-terminus assumed): <90% and <90%.
For `CC[C@H](C)[C@H](NC(=O)[C@H](Cc1c[nH]c2ccccc12)NC(=O)[C@H](CCC(=O)O)NC(=O)[C@@H](N)CCCCN)C(=O)N[C@@H](CCC(N)=O)C(=O)N[C@@H](CC(C)C)C(=O)N[C@@H](CCCCN)C(=O)N[C@@H](CC(C)C)C(=O)NCC(=O)N[C@@H](CCC(N)=O)C(=O)N1CCC[C@H]1C(=O)N[C@@H](CCSC)C(=O)N[C@@H](Cc1ccc(O)cc1)C(=O)O` [compound 31] (H-KEWIQLKLGQPMY-OH; N-terminus and C-terminus assumed), the “Inhibition at 50 μM” value is <90% and the “Inhibition at 100 μM” value was <90%.
With `CSCC[C@H](NC(=O)CNC(=O)[C@H](CCC(N)=O)NC(=O)CNC(=O)[C@@H]1CCCN1C(=O)[C@H](CCCCN)NC(=O)[C@H](CC(C)C)NC(=O)[C@H](CO)NC(=O)[C@H](CC(C)C)NC(=O)[C@H](Cc1c[nH]c2ccccc12)NC(=O)[C@H](CO)NC(=O)[C@@H](N)CCCCN)C(=O)N[C@@H](Cc1ccc(O)cc1)C(=O)O` [compound 32] (H-KSWLSLKPGQGMY-OH; N-terminus and C-terminus assumed), the “Inhibition at 50 μM” value is on record as <90% and the “Inhibition at 100 μM” value is <90%.
For `CSCC[C@H](NC(=O)[C@@H]1CCCN1C(=O)[C@H](CCC(=O)O)NC(=O)CNC(=O)[C@@H]1CCCN1C(=O)[C@H](CCCCN)NC(=O)[C@H](Cc1ccccc1)NC(=O)[C@H](CCC(N)=O)NC(=O)CNC(=O)[C@H](Cc1c[nH]c2ccccc12)NC(=O)[C@H](CCCNC(=N)N)NC(=O)[C@@H](N)Cc1c[nH]c2ccccc12)C(=O)N[C@@H](Cc1ccc(O)cc1)C(=O)O` [compound 33] (H-WRWGQFKPGEPMY-OH; N-terminus and C-terminus assumed), the “Inhibition at 50 μM” value was <90% and the “Inhibition at 100 μM” value is recorded as <90%.
Regarding `CSCC[C@H](NC(=O)CNC(=O)[C@H](CCC(N)=O)NC(=O)CNC(=O)[C@@H]1CCCN1C(=O)[C@H](Cc1ccccc1)NC(=O)[C@H](Cc1ccccc1)NC(=O)[C@H](CO)NC(=O)[C@H](CC(C)C)NC(=O)[C@H](Cc1c[nH]c2ccccc12)NC(=O)[C@H](Cc1c[nH]cn1)NC(=O)[C@@H]1CCCN1)C(=O)N[C@@H](Cc1ccc(O)cc1)C(=O)O` [compound 34] (H-PHWLSFFPGQGMY-OH; N-terminus and C-terminus assumed), the “Inhibition at 50 μM” value is <90% and the “Inhibition at 100 μM” value is reported as <90%.
On to `CSCC[C@H](NC(=O)[C@@H]1CCCN1C(=O)[C@H](CCSC)NC(=O)CNC(=O)[C@@H](NC(=O)[C@H](CCCCN)NC(=O)[C@H](CC(C)C)NC(=O)[C@H](CCC(=O)O)NC(=O)[C@H](CC(C)C)NC(=O)[C@H](Cc1c[nH]c2ccccc12)NC(=O)[C@H](CS)NC(=O)[C@@H](N)CCCCN)[C@@H](C)O)C(=O)N[C@@H](Cc1ccc(O)cc1)C(=O)O` [compound 35] (H-KCWLELKTGMPMY-OH; N-terminus and C-terminus assumed), for which the “Inhibition at 50 μM” value is on record as <90% and the “Inhibition at 100 μM” value worked out at 97.61%.
Turning to `CSCC[C@H](NC(=O)[C@H](Cc1c[nH]cn1)NC(=O)[C@@H](N)Cc1c[nH]c2ccccc12)C(=O)N[C@@H](CC(C)C)C(=O)N[C@@H](CCC(=O)O)C(=O)N[C@@H](Cc1ccccc1)C(=O)N[C@@H](CCCCN)C(=O)N1CCC[C@H]1C(=O)NCC(=O)N[C@@H](CCC(N)=O)C(=O)N1CCC[C@H]1C(=O)N[C@@H](CCSC)C(=O)N[C@@H](Cc1ccc(O)cc1)C(=O)O` [compound 36] (H-WHMLEFKPGQPMY-OH; N-terminus and C-terminus assumed), the “Inhibition at 50 μM” value is on record as <90% and the “Inhibition at 100 μM” value is <90%.
In the case of `CC[C@H](C)[C@H](NC(=O)[C@H](Cc1c[nH]c2ccccc12)NC(=O)[C@H](Cc1c[nH]cn1)NC(=O)[C@@H]1CCCN1)C(=O)N[C@@H](CCC(N)=O)C(=O)N[C@@H](CC(C)C)C(=O)N[C@@H](Cc1ccccc1)C(=O)N[C@@H](CC(N)=O)C(=O)NCC(=O)N[C@@H](CCC(N)=O)C(=O)N1CCC[C@H]1C(=O)N[C@@H](CCSC)C(=O)N[C@@H](Cc1ccc(O)cc1)C(=O)O` [compound 37] (H-PHWIQLFNGQPMY-OH; N-terminus and C-terminus assumed), the “Inhibition at 50 μM” value is listed as <90% and the “Inhibition at 100 μM” value is <90%.
Consider `CSCC[C@H](NC(=O)[C@@H]1CCCN1C(=O)[C@H](CCC(=O)O)NC(=O)CNC(=O)[C@@H]1CCCN1C(=O)[C@H](CCCCN)NC(=O)[C@H](Cc1ccccc1)NC(=O)[C@H](CCC(N)=O)NC(=O)[C@H](CC(C)C)NC(=O)[C@@H](NC(=O)[C@H](Cc1c[nH]cn1)NC(=O)[C@@H](N)CCCCN)C(C)C)C(=O)N[C@@H](Cc1ccc(O)cc1)C(=O)O` [compound 38] (H-KHVLQFKPGEPMY-OH; N-terminus and C-terminus assumed), for which the “Inhibition at 50 μM” value is <90% and the “Inhibition at 100 μM” value is recorded as <90%.
In the case of `CSCC[C@H](NC(=O)[C@@H]1CCCN1C(=O)[C@H](CCC(N)=O)NC(=O)CNC(=O)[C@@H]1CCCN1C(=O)[C@H](CCCCN)NC(=O)[C@H](Cc1ccccc1)NC(=O)[C@H](CCC(N)=O)NC(=O)CNC(=O)[C@H](Cc1c[nH]c2ccccc12)NC(=O)[C@H](CO)NC(=O)[C@@H](N)CCCCN)C(=O)N[C@@H](Cc1ccc(O)cc1)C(=O)O` [compound 39] (H-KSWGQFKPGQPMY-OH; N-terminus and C-terminus assumed), the “Inhibition at 50 μM” value is <90% and the “Inhibition at 100 μM” value is <90%.
As for `CC[C@H](C)[C@H](NC(=O)[C@H](Cc1c[nH]c2ccccc12)NC(=O)[C@H](CCC(=O)O)NC(=O)[C@@H]1CCCN1)C(=O)N[C@@H](CCC(N)=O)C(=O)N[C@@H](CC(C)C)C(=O)N[C@@H](CCCCN)C(=O)N[C@H](C(=O)NCC(=O)N[C@@H](CCSC)C(=O)N1CCC[C@H]1C(=O)N[C@@H](CCSC)C(=O)N[C@@H](Cc1ccc(O)cc1)C(=O)O)[C@@H](C)O` [compound 40] (H-PEWIQLKTGMPMY-OH; N-terminus and C-terminus assumed), the “Inhibition at 50 μM” value is <90% and the “Inhibition at 100 μM” value is given as <90%.
On to `CSCC[C@H](NC(=O)[C@@H]1CCCN1C(=O)[C@H](CCC(N)=O)NC(=O)CNC(=O)[C@@H]1CCCN1C(=O)[C@H](CCCCN)NC(=O)[C@H](Cc1ccccc1)NC(=O)[C@H](CC(N)=O)NC(=O)[C@H](CC(C)C)NC(=O)[C@H](CC(C)C)NC(=O)[C@H](Cc1c[nH]cn1)NC(=O)[C@@H]1CCCN1)C(=O)N[C@@H](Cc1ccc(O)cc1)C(=O)O` [compound 41] (H-PHLLNFKPGQPMY-OH; N-terminus and C-terminus assumed), for which the “Inhibition at 50 μM” value is given as <90% and the “Inhibition at 100 μM” value is reported as <90%.
With `CSCC[C@H](NC(=O)[C@@H]1CCCN1C(=O)[C@H](CCC(N)=O)NC(=O)CNC(=O)[C@H](CO)NC(=O)[C@H](Cc1c[nH]c2ccccc12)NC(=O)[C@H](CC(C)C)NC(=O)[C@H](CCC(N)=O)NC(=O)CNC(=O)[C@H](CO)NC(=O)[C@H](Cc1c[nH]cn1)NC(=O)[C@@H]1CCCN1)C(=O)N[C@@H](Cc1ccc(O)cc1)C(=O)O` [compound 42] (H-PHSGQLWSGQPMY-OH; N-terminus and C-terminus assumed), the “Inhibition at 50 μM” value is listed as <90% and the “Inhibition at 100 μM” value was <90%.
`CSCC[C@H](NC(=O)[C@@H]1CCCN1C(=O)[C@H](CCC(N)=O)NC(=O)CNC(=O)[C@H](CC(C)C)NC(=O)[C@H](CCCCN)NC(=O)[C@H](Cc1ccccc1)NC(=O)[C@H](CCC(N)=O)NC(=O)CNC(=O)[C@H](Cc1c[nH]c2ccccc12)NC(=O)[C@H](Cc1c[nH]cn1)NC(=O)[C@@H]1CCCN1)C(=O)N[C@@H](Cc1ccc(O)cc1)C(=O)O` [compound 43] (H-PHWGQFKLGQPMY-OH; N-terminus and C-terminus assumed): the “Inhibition at 50 μM” value was <90% and the “Inhibition at 100 μM” value is recorded as <90%.
Take `CSCC[C@H](NC(=O)CNC(=O)[C@H](CCC(N)=O)NC(=O)CNC(=O)[C@@H](NC(=O)[C@H](CCCCN)NC(=O)[C@H](CC(C)C)NC(=O)[C@H](CC(N)=O)NC(=O)[C@@H](NC(=O)[C@H](Cc1c[nH]c2ccccc12)NC(=O)[C@H](Cc1c[nH]cn1)NC(=O)[C@@H]1CCCN1)C(C)C)[C@@H](C)O)C(=O)N[C@@H](Cc1ccc(O)cc1)C(=O)O` [compound 44] (H-PHWVNLKTGQGMY-OH; N-terminus and C-terminus assumed): the “Inhibition at 50 μM” value is on record as <90% and the “Inhibition at 100 μM” value is <90%.
As to `CSCC[C@H](NC(=O)[C@H](CO)NC(=O)[C@H](CCC(N)=O)NC(=O)CNC(=O)[C@@H]1CCCN1C(=O)[C@H](CCCCN)NC(=O)[C@H](Cc1ccccc1)NC(=O)[C@H](CCC(N)=O)NC(=O)[C@H](CC(C)C)NC(=O)CNC(=O)[C@@H](NC(=O)[C@@H]1CCCN1)[C@@H](C)O)C(=O)N[C@@H](Cc1ccc(O)cc1)C(=O)O` [compound 45] (H-PTGLQFKPGQSMY-OH; N-terminus and C-terminus assumed), the “Inhibition at 50 μM” value is <90% and the “Inhibition at 100 μM” value is reported as <90%.

These data come from patent US20250382332A1, “NOVEL ALPHA-FACTOR BASED PEPTIDES WITH ANTIFUNGAL ACTIVITY” (INVAIO SCIENCES, INC., priority 2024, published 2025).
